Source: article PMC8187479, “Sugar phosphate activation of the stress sensor eIF2B” (Nature Communications, 2021)

What follows are compounds tested against T1, eIF2Bα (Homo sapiens, UniProt Q14232) (assay: MIDAS (mass spectrometry integrated with equilibrium dialysis) metabolite binding screen). Conditions: MIDAS metabolite binding screen with eIF2Bα; sheet "eIF2Ba".
T1 construct: made in house; host or cells: E. coli BL21(DE3)
T1 sequence (Q14232 1-305): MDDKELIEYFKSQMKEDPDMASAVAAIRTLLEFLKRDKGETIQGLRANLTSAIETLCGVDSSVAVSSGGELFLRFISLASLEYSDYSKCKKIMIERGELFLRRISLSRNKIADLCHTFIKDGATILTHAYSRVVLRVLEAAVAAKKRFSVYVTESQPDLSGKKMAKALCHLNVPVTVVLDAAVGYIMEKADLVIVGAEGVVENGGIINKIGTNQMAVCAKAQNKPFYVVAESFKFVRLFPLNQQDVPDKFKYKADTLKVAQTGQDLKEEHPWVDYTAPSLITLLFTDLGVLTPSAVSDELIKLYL
Method: Metabolites were combined into four defined screening pools. […] To the reverse side, 300 μL of 50 μM per metabolite pool was aliquoted and sealed (metabolite chamber). Loaded dialysis plates were placed in the dark at 4 °C on a rotating shaker (120 rpm) and incubated for 40 h. Post-dialysis, metabolites were isolated from each chamber by cold methanol extraction. Each sample was analyzed in technical triplicate by FIA-MS on a SCIEX X500R QTOF MS with interspersed blanks injections. The input metabolite pools were assayed at the beginning, middle, and end of each MS method batch for QC and normalization.
MIDAS FIA-MS spectra were processed in SCIEX OS 1.6 software to determine metabolite abundances by integrating the mean area under the curve for each extracted ion chromatogram. For each dialysis replicate, log2(fold change) for each metabolite was calculated as the difference between the log2 abundance in the protein chamber and metabolite chamber. For each technical triplicate, up to one outlier was removed using a z-score cutoff of five (<0.1% of observations). The corrected technical replicates were collapsed to one mean fold-change summary per protein-metabolite pair. To remove fold-change variation that was not specific to a given metabolite-protein pair, the first three principal components of the total screening dataset were removed on a per metabolite pool basis by subtracting the projection of the first 3 principal components, creating log2(corrected fold change). Protein-metabolite z-scores were determined by comparing the target protein-metabolite log2(corrected fold change) to a no-signal model for that metabolite using measures of the central tendency (median) and standard deviation (extrapolated from the 25–75% quantiles), which are robust to the signals in the tails of a metabolite’s fold-change distribution. Z-scores were false-discovery rate controlled using Storey’s q-value (qvalue, R) and protein-metabolite interactions with q-values < 0.1 were considered significant.

Structure (SMILES)	log2(corrected fold change)
C[C@@H](O)[C@H](N)C(=O)O [L-Threonine]	-0.05619
NC(=O)NCCC[C@H](N)C(=O)O [L-Citrulline]	-0.01086
NCCC(=O)O [Beta-alanine]	0.0004222
O=C(O)CC[C@H](O)C(=O)O [L-Hydroxyglutaric acid]	-0.0058
OC[C@H]1O[C@@H](O[C@H]2[C@H](O)[C@@H](O)[C@H](O)O[C@@H]2CO)[C@H](O)[C@@H](O)[C@H]1O [D-Lactose]	-0.002139
Nc1nc(=O)c2nc(CNc3ccc(C(=O)N[C@@H](CCC(=O)O)C(=O)O)cc3)cnc2[nH]1 [Folic acid]	-0.02054
O=C(O)C[C@H](O)[C@H](O)CO [2-Deoxy-D-ribonic acid]	-0.009975
OC[C@H]1O[C@H](OC2[C@@H](O)[C@H](O)C(O)[C@H](O)[C@@H]2O)[C@H](O)[C@@H](O)[C@H]1O (some centres unmarked) [Galactinol]	-0.02052
Nc1ccn([C@@H]2O[C@H](COP(=O)(O)OP(=O)(O)OP(=O)(O)O)[C@@H](O)[C@H]2O)c(=O)n1 [Cytidine 5-triphosphate]	0.04784
O=C(O)[C@H]1C[C@@H](O)CN1 [Cis-4-Hydroxy-D-proline]	0.008003
CCC(C(=O)O)C(=O)O [Ethylmalonic acid]	-0.03876
O=c1ccn([C@@H]2O[C@H](CO)[C@@H](O)[C@H]2O)c(=O)[nH]1 [Uridine]	0.009821
C[C@H](O)[C@@H](O)[C@@H](O)[C@H](O)C(=O)O [6-Deoxy-L-galactonic acid]	-0.02256
O=C(O)CCC(=O)C(=O)O [Ketoglutaric acid]	0.06742
CC(=O)N[C@H]1C(OP(=O)(O)O)O[C@H](CO)[C@@H](O)[C@@H]1O (stereo partly drawn) [N-Acetyl-D-glucosamine 1-phosphate]	-0.08166
CC(C)(COP(=O)(O)OP(=O)(O)OC[C@H]1O[C@@H](n2cnc3c(N)ncnc32)[C@H](O)[C@@H]1OP(=O)(O)O)[C@@H](O)C(=O)NCCC(=O)NCCS [Coenzyme A]	0.05668
N[C@@H](CO)C(=O)O [L-Serine]	-0.04824
Nc1ccn([C@H]2C[C@H](O)[C@@H](COP(=O)(O)OP(=O)(O)O)O2)c(=O)n1 [2-Deoxycytidine 5-diphosphate]	0.01712
O=C(O)C(O)c1ccc(O)c(O)c1 (racemic) [DL-3,4-Dihydroxymandelic acid]	-0.05412
CC(C)CC(O)C(=O)O (centres unmarked) [2-Hydroxyisocaproic acid]	-0.0302
CC(C)=CC(=O)O [3,3-Dimethylacrylic acid]	0.01899
CC(=O)N[C@H]1[C@H]([C@H](O)[C@H](O)CO)O[C@](OP(=O)(O)OC[C@H]2O[C@@H](n3ccc(N)nc3=O)[C@H](O)[C@@H]2O)(C(=O)O)C[C@@H]1O	-0.01546

Same assay, conditions: MIDAS screen, sheet eIF2Ba; metabolites screened in pools 1-4; p-value and q-value given

Structure (SMILES)	log2(corrected fold change)
O=C(O)CNC(=O)c1ccco1 [N-2-Furoylglycine]	-0.1649
Nc1ncnc2c1ncn2[C@H]1C[C@H](O)[C@@H](COP(=O)(O)OP(=O)(O)OP(=O)(O)O)O1 [2-Deoxyadenosine 5-triphosphate]	-0.07151
NCc1[nH]cc(CCC(=O)O)c1CC(=O)O [Porphobilinogen]	-0.05886
CCCCC[C@H](O)/C=C/[C@H]1C(=O)C[C@H](O)[C@@H]1C/C=C\CCCC(=O)O [Prostaglandin D2]	0.05625
O=C(O)c1ccc(O)cc1 [4-Hydroxybenzoic acid]	0.1295
O=CNc1ccccc1C(=O)O [N-Formylanthranilic acid]	0.2026
O=C(COP(=O)(O)O)[C@@H](O)[C@H](O)[C@H](O)COP(=O)(O)O [D-Fructose 1,6-bisphosphate]	-0.7792
O=P(O)(O)O[C@@H]1[C@H](O)[C@H](O)[C@@H](OP(=O)(O)O)[C@H](OP(=O)(O)O)[C@H]1O [D-myo-Inositol-1,4,5-triphosphate]	0.2026
O=C(CO)COP(=O)(O)O [Glycerone phosphate]	0.09175
CSCC[C@H](N)C(=O)O [L-Methionine]	0.06465
Nc1ccn([C@@H]2O[C@H](CO)[C@@H](O)[C@H]2O)c(=O)n1 [Cytidine]	0.2698
O=C(O)CNC(=O)Cc1ccccc1 [Phenylacetylglycine]	0.07604
O=C[C@H](O)[C@@H](O)[C@H](O)CO [D-Xylose]	-0.1354
C[C@H](CO)C(=O)O [(R)-Hydroxyisobutyrate]	0.07137
CC(CC(=O)O)CC(=O)O [3-Methylglutaric acid]	-0.09665
Nc1ccccc1C(=O)C[C@H](N)C(=O)O [L-Kynurenine]	0.1418
N[C@H](CC(=O)O)C(=O)O [D-Aspartate]	0.03257
OC[C@@H](O)[C@@H](O)[C@H](O)[C@@H](O)CO [D-Sorbitol]	0.05676
O[C@@H]1[C@@H](O)[C@@H](O)CO[C@H]1O [L-Arabinose]	-0.1354
Nc1ncnc2[nH]cnc12 [Adenine]	-0.2309
O=c1cc[nH]c(=O)[nH]1 [Uracil]	-0.07123
Nc1ncnc2c1ncn2[C@@H]1O[C@H](CSCC[C@H](N)C(=O)O)[C@@H](O)[C@H]1O [S-(5-Adenosyl)-L-homocysteine]	-0.01949
Nc1nc2c(ncn2[C@H]2C[C@H](O)[C@@H](COP(=O)(O)O)O2)c(=O)[nH]1 [Deoxyguanylate]	0.08261
CC(=O)N[C@@H]1[C@@H](O)[C@H](O)[C@@H](CO)O[C@@H]1O [N-Acetyl-D-glucosamine]	0.3673
C/C=C/C(=O)SCCNC(=O)CCNC(=O)[C@H](O)C(C)(C)COP(=O)(O)OP(=O)(O)OC[C@H]1O[C@@H](n2cnc3c(N)ncnc32)[C@H](O)[C@@H]1OP(=O)(O)O [Crotonoyl coenzyme A]	-2.153
COc1cc(C(O)C(=O)O)ccc1O (racemic) [DL-4-Hydroxy-3-methoxymandelic acid]	-0.08249
O=c1[nH]cnc2c1ncn2[C@@H]1O[C@H](COP(=O)(O)OP(=O)(O)OP(=O)(O)O)[C@@H](O)[C@H]1O [Inosine 5-triphosphate]	-0.2055
OC[C@@H](O)[C@H](O)[C@H](O)[C@@H](O)CO [Dulcitol]	-0.4944
